Where a SMILES comes first, the peptide text is derived from it. Bridges are numbered along the chain shown (N, C = ends). [ ]: non-standard residue; d: D form. The star is where a group is joined. Ileψ(thiazoline)Cys = CC[C@H](C)[C@H](N)C1=N[C@H](C(=O)*)CS1; dOrn = NCCC[C@@H](N)C(=O)O
Tests used:
[1] = biological target: BceAB transporter from S. pneumoniae (Streptococcus pneumoniae, UniProt A0A0H2ZN40); assay type: biochemical; conditions: 5 mM nucleotide, 300 μg/mL bacitracin
Description: E. coli BL21(DE3) cells were transformed with pRSF-Duet1-BceAB WT, K48A or E170Q and selected on LB-agar plates containing 50 μg/mL kanamycin. One colony was inoculated into in 2L-baffled flasks containing 500 mL of 2YT medium and 50 μg/mL kanamycin and grown at 37°C, 180 rpm to OD600 of 0.6. Protein expression was induced by adding IPTG to a final concentration of 1 mM. Induction was performed overnight at 25°C and cells were harvested by centrifugation at 7,000 g for 20 min.
Cells were resuspended in buffer A (HEPES-NaOH 100 mM pH 8.0, NaCl 150 mM) and lysed by passaging them three times through a cell disruptor (Microfluidizer, Microfluidics) at 18,000 psi (or 1,24 x 108 Pa). Undisrupted cells and cell debris were removed by centrifugation at 15,000 x g for 30 min at 4°C. Membranes were harvested from the supernatant after ultracentrifugation at 150,000 x g for 1 h at 4°C. Membranes were resuspended in 20 mL of buffer A and centrifuged once again at 150,000 x g for 1 h at 4°C. Membrane pellets were homogenized in buffer HEPES-NaOH 100 mM pH 8.0, NaCl 150 mM and 20% glycerol, and stored at -80°C.
For the purification of BceAB, membranes from 0,5 L cell culture were diluted in buffer B (100 mM d’HEPES-NaOH pH 8, 150 mM NaCl, 10% glycerol) to a protein concentration of 4 mg/mL and solubilized with 0.5% (w/v) LMNG for 2 h at 4°C. After ultracentrifugation at 150,000 x g for 1 h at 4°C, the supernatant containing solubilized proteins was diluted four times using buffer B and loaded on Ni^2+-charged immobilized metal-ion affinity chromatography (IMAC) column (1 mL HisTrap HP, Cytiva). The column was washed with 10 mL of buffer B containing 0.005% (w/v) LMNG and 20 mM of imidazole. The column was further washed with the same buffer until OD280nm reached basal levels. BceAB was eluted by buffer B containing 0.005% (w/v) LMNG and an imidazole gradient from 20 to 500 mM of imidazole. Purified BceAB was dialyzed into buffer B containing 0.005% (w/v) LMNG and stored at -80°C.
The proteoliposomes were prepared as previously described for the transporter BmrA [50]. Proteoliposomes were loaded on sucrose gradient with different layers of 400 μL of 50 mM HEPES-KOH pH 8.0 buffer containing 30, 20, 15 or 10% of sucrose. One mL of proteoliposomes was loaded on the top of the sucrose gradient and ultra-centrifuged at 200,000 x g for 12 h at 4°C. Proteoliposomes were typically collected from the 15% layer and were loaded on SDS-PAGE to analyze and quantify the presence of BceAB by using a standard-curve of purified BceAB and ImageJ.
These activities were performed as previously described.

[2] = test system: BceA-GFP in S. pneumoniae R800; experiment: BceA-GFP expression by fluorescence microscopy and Western blot; assay type: cell-based, Streptococcus pneumoniae; conditions: bacitracin 0.5 μg/mL, 30 min, 37°C, fluorescence microscopy of individual cells
Description: Cells were inoculated in C+Y medium and grown at 37°C, without agitation and in anaerobic conditions, until at OD550nm = 0.3. After centrifugation 5 min at 5,000 g, pellets were resuspended in 1/50th of initial volume in TE buffer (25 mM Tris-HCl pH = 7.5, EDTA 1 mM) with DNase/RNase 6 μg/mL and protease inhibitor CLAPA 1X (Chymostatin 1 μg/mL, Pepstatin 1 μg/mL, Leupeptin 1 μg/mL, Antipaïn 1 μg/mL, Aprotinin 4 μg/mL). Cells were lysed by sonication by using Sonifier 450 Branson device. 25 μg of crude extracts were mixed with Laemmli loading buffer and heated 10 min at 95°C. Samples were loaded onto an 12.5% SDS-PAGE and migration was performed in TG-SDS buffer (Tris-HCl 25 mM, Glycine 0.192 M, SDS 0.1% (v/v)). Proteins were transferred onto a PVDF membrane, previously activated by methanol 100%, in a transfer buffer (Tris-HCl 25 mM pH = 8, Glycine 0.192 M, methanol 20% (v/v), SDS 0.04% (v/v)). The membrane was washed with TBST (Tris-HCl 100 mM pH = 8, NaCl 150 mM, Tween 0.05%) and incubated 1 h with blocking buffer (BSA 5%, TBST). […]
Pneumococcal cells were grown at 37°C until OD550nm = 0.2 in C+Y medium. […] Images were analyzed using ImageJ (http://rsb.info.nih.gov/ij/) and the plugin MicrobeJ to generate violin plots.

CC[C@H](C)[C@H](N)C1=N[C@H](C(=O)N[C@@H](CC(C)C)C(=O)N[C@H](CCC(=O)O)C(=O)N[C@H](C(=O)N[C@H]2CCCCNC(=O)[C@H](CC(N)=O)NC(=O)[C@@H](CC(=O)O)NC(=O)[C@H](Cc3cnc[nH]3)NC(=O)[C@@H](Cc3ccccc3)NC(=O)[C@H]([C@@H](C)CC)NC(=O)[C@@H](CCCN)NC2=O)[C@@H](C)CC)CS1 [bacitracin] ({Ileψ(thiazoline)Cys}-L[dE]IK[dOrn]I[dF]H[dD]N; lactam 4-C (inferred); N-terminus assumed)
ATPase activity of wild-type BceAB stimulated by bacitracin ([1]; after reconstitution in liposomes, calculated on total protein added to the reconstitution mixture): 0.6–1 μmol of ATP hydrolyzed/min/mg
Specific ATPase activity of wild-type BceAB in the presence of bacitracin ([1]; proteoliposomes further separated on sucrose gradient): up to 2 μmol ATP hydrolyzed/min/mg
Expression of BceA-GFP [2]: strongly activated
